Source: patent US20140024716A1, “Composition Comprising S-Allyl-L-Cysteine as Active Ingredient for Preventing or Treating Gastrointestinal Disorders” (PHARMAKING CO., LTD., priority 2009, published 2014)
“And” between values parts separate entries of the source, which are not always exact repeats. Identical values can stand only once. “Also recorded” adds a separate entry of the source.

Legend:
[1] = system: gastric lesions of rats induced by indomethacin; assay: Indomethacin-induced gastric lesion animal model; format: in vivo, Sprague-Dawley rats
From the text: (§1) SAC was purchased from TCI Chemical Co. (Tokyo, Japan). Sterile water for injection (Model No. 73H5F21, Dae Han Pharmaceutical Co. Ltd.) was used as a vehicle, and Stillen® was used as a positive control material. 0.5% CMC-Na and sterile water for injection were used as excipients for Stillen®. Hydrochloric acid was purchased from Samjung Chemical, Co., ethanol was purchased from Baker, Co., aspirin was purchased from Sigma, Co., and indomethacin was purchased from Sigma, Co.
(§2) 7 to 8-week old male specific pathogen free (SPF) HsdKoat:Sprague-Dawley®™ SD®™rats (weight of 7-week old males was in the range of 208.44 to 227.39 g, and weight of 8-week old maleswas in the range of 223.85 to 245.03 g, purchased from Koatech, Co. Ltd., Gyunggido, Korea) were quarantined and acclimated in the Animal Lab for 7 days. The rats were bred at a temperature of 23 3° C., at a relative humidity of 55 15%, with light for 12 hours (light turned on at 08:00 and light turned off at 20:00) while air was ventilated 10 to 20 times/hr in the Animal Experiment Lab of Gyeonggi Bio-Center. Other environments for breeding which might influence the test for the entire test period were not considered for use. The rats were given free access to a solid laboratory diet (Harlan Co. Ltd., USA. Teklad certified global 18% protein rodent diet, 2918C) that was supplied by Folas International. […] The rats were given free access to tap water that was sterilized using a UV sterilizer and a micro filter with water bottles.
(§3) The rats were classified into a vehicle control group G1 to which only a vehicle was administered, a experimental group G2 to which 100 mg/kg of SAC was administered, a experimental group G3 to which 200 mg/kg of SAC was administered, a experimental group G4 to which 400 mg/kg of SAC was administered, and a positive control group G5 to which 100 mg/kg of Stillen® (55.6 mg/kg as an active ingredient) as a positive control material were administered. Each group included 8 rats in a hydrochloric acid-ethanol-induced animal model (Experiment Example 7) and included 6 rats in an aspirin-induced animal model (Experimental Example 8) and in an indomethacin-induced animal model (Experimental Example 9).
(§4) The test substance was directly administered to the stomach using an injection tube equipped with a sonde for oral administration in a single dose once per day.
The rats were fasted for more than 24 hours in a normal environment, SAC was administered, and 25 mg/kg of indomethacin in distilled water was orally administered after 30 minutes. After six hours from the indomethacin administration, the rats were sacrificed under ether anesthesia and their stomachs including parts of the duodenum and esophagus were isolated. The stomachs were fixed for 10 minutes by injecting 12 ml of 2% formalin, the greater curvature of each stomach was incised and unfolded, photographs of the lesions were taken, and then the areas of the lesions were measured using an image analyzer.
The gastric lesion inhibiting rate (%) was calculated in the same manner as in Experimental Example 8.

Helicobacter pylori = assay: Histological change of stomach caused by Helicobacter pylori (H&E staining); format: in vivo, C57BL/6 mice
Protocol: 8-week old male C57BL/6 mice were classified into 4 groups, i.e., a positive control group (to which Helicobacter pylori was administered; PC), a negative control group (to which saline was administered; NC), experimental group 1 (to which Helicobacter pylori and 200 mg/kg of SAC were administered; SAC1), and experimental group 2 (to which Helicobacter pylori and 400 mg/kg of SAC were administered; SAC2). Each group had 10 mice. White powdered SAC was diluted in tap water to concentrations of 20 mg/mL and 40 mg/mL and 10 μl/g (body weight) of the diluted SAC was orally administered to the mice of the SAC1 and SAC2 groups three times a week for 10 weeks. The mice were given free access to tap water for the entire test period. The Helicobacter pylori was collected with saline to a concentration of 1×10^9 CFU/mL, and 0.2 mL of the diluted Helicobacter pylori was orally administered to each mouse for 8 weeks from 2 weeks after SAC administration. The mice were fasted for 8 hours before the infection, and 0.15 mL of 0.2 M sodium bicarbonate (NaHCO3) was administered to each mouse 10 minutes before the administration of Helicobacter pylori in order to neutralize acidified stomach due to the fasting. The same amount of saline instead of the infectious substances was administered into the NC group. The mice of all groups were fed with a normal diet. After a 10-week test period, autopsies were performed on all mice, and samples of blood and internal organs were collected for tissue pathological analyses. […]
A stomach sample was fixed with 10% formalin and a paraffin block was formed. […] In addition, the number of eosinophils was checked from a region where the esophagus and stomach join and counted from three regions of the stomach, i.e., cardia, gastric pit, and gastric crypt of lamina propria. The number of mitotic figures was counted from two regions selected from the entire antrum from cardia to pylorus. Thus two samples were obtained from each animal and evaluated with a 400× magnification, and an average value of each group was calculated.

[2] = system: gastric lesions of rats induced by aspirin; assay: Aspirin-induced gastric lesion animal model; format: in vivo, Sprague-Dawley rats; conditions: for Ulcer Area (mm^2), group mean: n = 6
From the text: as §1, §2, §3, §4
The rats were fasted for more than 24 hours in a normal environment, the test substance was administered, and 200 mg/kg of aspirin in 0.15 mol/L HCl was orally administered after 30 minutes. After three hours from the aspirin administration, the rats were sacrificed under ether anesthesia and their stomachs including parts of the duodenum and esophagus were isolated. The stomachs were was fixed for 10 minutes by injecting 12 ml of 2% formalin. The greater curvature of each stomach was incised and unfolded, photographs of the gastric grandular region were taken, and then the areas of the lesions were measured using an image analyzer.
Gastric lesion inhibiting rate (%)=(average area of the vehicle control group-area of gastric lesion of each animal)/average area of the vehicle control group×100.

Structure (SMILES): C=CCSC[C@H](N)C(=O)O [SAC, S-allyl-L-cysteine]
- gross finding of stomach ([1]; 200 mg/kg and 400 mg/kg SAC): light gastric lesions and no bleedings
- Ulcer area of individual animal (Animal number 1-6) ([1]; G2: 100 mg/kg SAC): 1.3 and 1.6 and 1.5 and 9.4 and 2.3
- Ulcer Area (mm^2), group mean ([1]; G2: 100 mg/kg SAC oral, 30 min before 25 mg/kg indomethacin): 3.2±3.47 mm^2 and 3.2 mm^2
- Ulcer area of individual animal (Animal number 1-6) ([1]; G3: 200 mg/kg SAC): 0.0 and 0.3 and 0.9 and 0.6 and 0.7 and 0.4
- Ulcer Area (mm^2), group mean ([1]; G3: 200 mg/kg SAC, n = 6): 0.5±0.30 mm^2 and 0.5 mm^2
- Ulcer area of individual animal (Animal number 1-6) ([1]; G4: 400 mg/kg SAC): 0.8 and 0.4 and 0.1 (2×) and 0.2 and 1.0
- Ulcer Area (mm^2), group mean ([1]; G4: 400 mg/kg SAC, n = 6): 0.4±0.36 mm^2 and 0.4 mm^2
- gastric lesion inhibiting rate (%) up to ([1]; highest rate over SAC doses): about 94%
- number of eosinophils in stomach versus PC group (Helicobacter pylori; SAC1 and SAC2 groups (200 and 400 mg/kg SAC)): significantly reduced; also recorded: less than that of the PC group
- number of eosinophils in stomach versus PC group (Helicobacter pylori; SAC1 group (200 mg/kg SAC), p<0.05): significantly less than that of the PC group
- number of mitotic figures (Helicobacter pylori; SAC2 group (400 mg/kg SAC)): slightly reduced
- Ulcer area of individual animal (Animal number 1-6) ([2]; G2: 100 mg/kg SAC): 91.68 and 44.12 and 40.95 and 63.52 (2×) and 64.67
- Ulcer Area (mm^2), group mean ([2]; G2: 100 mg/kg SAC oral, 30 min before 200 mg/kg aspirin): 68.6±25.94 mm^2 and 68.6 mm^2
- Ulcer area of individual animal (Animal number 1-6) ([2]; G3: 200 mg/kg SAC): 46.29 and 19.37 and 5.41 and 27.07 (2×) and 43.86
- Ulcer Area (mm^2), group mean ([2]; G3: 200 mg/kg SAC): 31.4±16.99 mm^2 and 31.4 mm^2
- Ulcer area of individual animal (Animal number 1-6) ([2]; G4: 400 mg/kg SAC): 63.26 and 9.34 and 70.28 and 40.03 (2×) and 11.58
- Ulcer Area (mm^2), group mean ([2]; G4: 400 mg/kg SAC): 32.5±29.78 mm^2 and 32.5 mm^2
- gastric lesion inhibiting rate (%) up to ([2]; highest rate over SAC doses): about 85%
